In patent publication US4338122A, “Biocidal 2-aryl-1,3-cyclopentanedione compounds and alkali metal and ammonium salts thereof” (Union Carbide Corporation, priority 1980, dated 1982):
In brackets after ≈: the same amount, converted by molar mass.

How the values were obtained:
[1] = system: two-spotted mite (Tetranychus urticae (Koch)), adults and nymphal stages; test: Mite Foliage Spray Test (adult miticidal); assay type: in vivo; set-up: key to Miticidal, Adult (control rating): A: Excellent Control; B: Partial Control; No Control; settings: for Miticidal, Adult (control rating): Table I, mortality count four days after spraying; for LC50: Tetranychus urticae, foliar, Table II, read-out: Miticidal LD50, Adult (ppm required for a 50 percent kill of mites)
Description: (§1) Suspensions of the test compounds were prepared by dissolving one gram of compound in 50 milliliters of acetone in which had been dissolved 0.1 gram (10 percent of the weight of compound) of an alkylphenoxyethoxyethanol surfactant, as an emulsifying or dispersing agent. The resulting solution was mixed into 160 milliliters of water to give roughly 200 milliliters of a suspension containing the compound in finely divided form. The thus prepared stock suspension contained 0.5 percent by weight of compound. The test concentrations employed in the tests described herein below were obtained by diluting the stock suspension with water. The test procedures were as follows:
Adults and nymphal stages of the two-spotted mite (Tetranychus urticae (Koch)), reared on Tendergreen bean plants at 80°±5° F. and 50±5 percent relative humidity, were the test organisms. Infested leaves from a stock culture were placed on the primary leaves of two bean plants six to eight inches in height, growing in a two-and-a-half inch clay pot. 150-200 Mites, a sufficient number for testing, transferred from the excised leaves to the fresh plants in a period of twenty-four hours. Following the twenty-four hour transfer period, the excised leaves were removed from the infested plants. The test compounds were formulated by diluting the stock suspension with water to provide suspensions containing the desired amount of test compound per million parts of final formulation. The potted plants (one pot per compound) were placed on a revolving turntable and sprayed with 100-110 milliliters of test compound formulation by use of a DeVilbis spray gun set at 40 psi. air pressure. This application, which lasted 30 seconds, was sufficient to wet the plants to run-off. As a control, 100-110 milliliters of a water solution containing acetone and emulsifier in the same concentrations as the test compound formulation, but containing no test compound, were also sprayed on infested plants. The sprayed plants were held at 80°±5° F. and 50±5 percent relative humidity for four days, after which, a mortality count of motile forms was made on the leaves of the test plants. Any individual which was capable of locomotion upon prodding was considered living.
(§2) In these tests the pesticidal activity of the compounds against mites and mite eggs were rated as follows:
(§3) Tests were conducted in accordance with the procedures given at pages 32 to 37 supra. The results are expressed in the same manner as used in Table I, except with respect to miticidal activity. For mite adult and mite egg comparison purposes, results are given in parts per million (ppm) required for a 50 percent kill of mites or eggs, respectively.

Tomato = test: Post-emergent herbicidal test, tomato; assay type: in vivo; set-up: key: 1: no perceptible injury; 2: intermediate degrees of injury based upon the number and extent to which leaves were injured; 3: intermediate degrees of injury based upon the number and extent to which leaves were injured; 4: intermediate degrees of injury based upon the number and extent to which leaves were injured; 5: the plant was dead; settings: 2500 parts per million, after ten days
Description: as §1
Experiments were also conducted to determine the phytotoxicity of representative compositions with respect to healthy fresh plants. Solutions of the compounds were prepared as described above to provide a concentration of 2500 parts per million of the test compound. The test plants were sprayed in accordance with the procedure described above for the Mite Foliage Spray Test so as to deliver approximately 100 milliliters of test solutions to the leaves of each plant tested. The sprayed plants and controls were set aside for approximately one hour to allow the solutions to dry and were then placed in the greenhouse. After ten days the plants were visually inspected to determine the extent of foliage injury. A rating of 1 indicates no perceptible injury; 5 indicates the plant was dead and ratings of 2, 3 and 4 indicate intermediate degrees of injury based upon the number and extent to which leaves were injured.
as §3

Crabgrass = test: Preliminary herbicide seed germination test (pre-emergent), crabgrass; assay type: in vivo, Digitaria sanguinalis; set-up: key: 5: no seedling emerged; 4: few seedlings emerged and/or very severe stunting; 3: moderate reduction in stand and/or moderate stunting; 2: very slight reduction in stand and/or slight stunting; 1: no injury; seedlings appear no different with respect to stand or growth than untreated controls; settings: ten to twelve days after application
Description: as §1
The following seeds were used in this test:
Crabgrass--Digitaria sanguinalis
Two soil-seed mixtures were prepared as follows:
Each of the above mixtures was rolled separately in 5 gallon containers for approximately one-half hour on ball mill to insure uniform mixing of seeds and soil. For each compound four 3-inch pots were filled with soil to within 11/2 inches of top of pots. To two of these pots were added 70 cc. of Mixture I. To the remaining 2 pots were added 70 cc. of Mixture II. The seed-soil mixture was tamped firmly, and the pots were removed to the green-house and watered lightly. About 2 hours after planting, 25 milliliters of the test formulation were added to one pot containing Mixture I and one pot containing Mixture II. An equal volume of a water solution containing acetone and an emulsifier in the same concentration as the herbicidal mixture but without the candidate herbicide was also added to each of the soil-seed mixtures. These pots are used as check or control units. The test compounds were formulated by diluting the stock suspension with water to obtain the desired concentration of the compound in parts per million of the final formulation. Each compound was tested at the same concentration. […] Ratings were made according to the following designations:
as §3

[2] = system: egg of the two-spotted mite (Tetranychus urticae (Koch)); test: Mite Ovicide Test (egg); assay type: in vivo; set-up: key to Miticidal, Egg (control rating): A: Excellent Control; B: Partial Control; No Control; settings: for Miticidal, Egg (control rating): Table I, unhatched/hatched eggs four days after spraying; for LC50: Tetranychus urticae, Table II, read-out: Miticidal LD50, Egg (ppm required for a 50 percent kill of eggs)
Description: as §1
The test organism was the egg of the two-spotted mite (Tetranychus urticae (Koch)), as obtained from adults reared on Tendergreen bean plants under controlled conditions of 80°±5° F. and 50±5 percent relative humidity. Heavily infested leaves from a stock culture were placed on the primary leaves of two bean plants six to eight inches in height growing in a two-and-a-half inch clay pot. Females were allowed to oviposit for a period of 48 hours and then the leaves of the infested plants were dipped in a solution containing 800 parts of tetraethyl pyrophosphate per million parts of water in order to destroy the reproductory forms and thus prevent further egg laying. […] The plants were allowed to dry thoroughly. The test compounds were formulated by diluting the stock suspension with water to give a suspension containing varying amounts of test compound per million parts of final formulation. The potted plants (one pot per compound) were placed on a revolving turntable and sprayed with 100-110 milliliters of test compound formulation by use of a DeVilbis spray gun set at 40 spig. air pressure. This application which lasted 30 seconds, was sufficient to wet the plants to run-off. As a control, 100-110 milliliters of a water solution containing acetone and emulsifier in the same concentrations as the test compound formulation, but containing no test compound, were also sprayed on plants infested with eggs. The sprayed plants were held at 80°±5° F. and 50±5 percent relative humidity for four days, after which a microscopic examination was made of unhatched (dead) and hatched (living) eggs.
as §2, §3

Structure (SMILES)	Miticidal, Adult (control rating) [1]	Post-Emergent Herbicidal, Tomato (injury rating) (Tomato; Table I)	Pre-emergent Herbicidal, Crabgrass (injury rating) (Crabgrass; Table I)	Miticidal, Egg (control rating) [2]	LC50 [1]	Post-Emergent Herbicidal, Tomato (injury rating) (Tomato; Table II)	Pre-emergent Herbicidal, Crabgrass (injury rating) (Crabgrass; Table II)	LC50 [2]
Cc1ccc(C)c(C2C(=O)CC(C)C2=O)c1 (centres unmarked) [CH3 H CH3 CH3 H, 2-(2',5'-Dimethylphenyl)-4-methyl-1,3-cyclopentanedione]	A	2	2	B	–	–	–	–
Cc1ccc(C)c(C2C(=O)CCC2=O)c1 [CH3 H CH3 H H]	A	1	2	B	–	–	–	–
Cc1ccc(C2C(=O)C3CCCCC3C2=O)c(C)c1 (centres unmarked) [CH3 CH3 H (CH2)4, 2-(2',4'-dimethylphenyl)-4,5,6,7,8,9-hexahydro-1,3-indandione]	A	2	5	A	7 µg/mL (≈ 27.3 µM)	2	5	15 µg/mL (≈ 58.5 µM)
Cc1ccccc1C1C(=O)C2CCCCC2C1=O (centres unmarked) [CH3 H H (CH2)4, 2-(2'-Methylphenyl)-4,5,6,7,8,9-hexahydro-1,3 indandione]	A	1	3	A	12 µg/mL (≈ 49.5 µM)	1	3	22 µg/mL (≈ 90.8 µM)
Cc1ccc(C)c(C2C(=O)c3ccccc3C2=O)c1 [Reference II Page 146, Compound 6, reference compound]	–	–	–	–	500 µg/mL (≈ 2000 µM)	1	1	200 µg/mL (≈ 799 µM)
Cc1ccccc1C1C(=O)c2ccccc2C1=O [Reference I Page 3, Compound 1, reference compound]	–	–	–	–	200 µg/mL (≈ 846 µM)	2	2	500 µg/mL (≈ 2120 µM)
Cc1ccc(C2C(=O)c3ccccc3C2=O)c(C)c1 [Reference II Page 146, Compound 9, reference compound]	–	–	–	–	40 µg/mL (≈ 160 µM)	1	3	110 µg/mL (≈ 439 µM)
O=C1CCC(=O)C1c1ccccc1Cl [Cl H H H H]	B	1	3	C	–	–	–	–
Cc1ccc(C2C(=O)CCC2=O)c(C)c1 [CH3 CH3 H H H, 2-(2',4'-dimethylphenyl)-1,3-cyclopentanedione]	A	1	5	A	15 µg/mL (≈ 74.2 µM)	1	5	110 µg/mL (≈ 544 µM)
O=C1CCC(=O)C1c1ccc(Cl)cc1Cl [Cl Cl H H H, 2-(2',4'-Dichlorophenyl)-1,3-cyclopentanedione]	A	1	1	B	–	–	–	–
Cc1ccc(C)c(C2C(=O)C3CCCCC3C2=O)c1 (centres unmarked) [CH3 H CH3 (CH2)4, 2-(2',5'-dimethylphenyl)-4,5,6,7,8,9-hexahydro-1,3-indandione]	A	1	1	A	35 µg/mL (≈ 137 µM)	1	1	30 µg/mL (≈ 117 µM)
Cc1ccccc1C1C(=O)CCC1=O [CH3 H H H H, 2-(2'-methylphenyl)-1,3-cyclopentanedione]	A	2	2	B	90 µg/mL (≈ 478 µM)	2	2	500 µg/mL (≈ 2660 µM)
